Source: patent publication US20130252890A1, “6,7-DIHYDRO-5H-BENZO[7]ANNULENE DERIVATIVES, PROCESS FOR PREPARATION THEREOF, PHARMACEUTICAL PREPARATIONS COMPRISING THEM, AND THE USE THEREOF FOR PRODUCTION OF MEDICAMENTS” (BAYER INTELLECTUAL PROPERTY GMBH, priority 2010, published 2013)
Structures can show the parent of a compound that is named as a salt.

Assays:
[1] = test system: uterus; test: Anti-uterus growth test in the adult rat; conditions: sc, 72 h; ovariectomized adult rat, s.c. 3 days with 1.5 μg/kg/day 17β-estradiol; inhibition of uterus growth; value of 44 is a mean of two measurements; read-out: anti-oestrogenic activity in vivo in % at a dose of 0.3 mg/kg (rat)
Description: The uterus of oestrogen-substituted rats can be used as a test model for detecting a direct action of substances with anti-oestrogenic properties. The parameter of oestrogenic action is estradiol-induced uterus growth in rats, which is inhibited by simultaneous administration of a substance with anti-oestrogenic action. The experimental animals (n=5-6 animals/group) were ovariectomized before the start of the test, to rule out the influence of endogenous oestrogens. After a phase of 6 to 10 days, the test substances are administered s.c. on 3 consecutive days (d1-d3) in combination with a substitution dose of 1.5 μg/kg/day 17β-estradiol. 17β-estradiol alone serves as positive control, and the excipients serve as negative control. On day 4 (d4) the animals are killed, and the uteri and vaginae are removed and weighed. The organ weights are converted to mg/100 g body weight, then the mean value and the standard deviation are calculated for each dosage. The inhibition of uterus growth induced by 17β-estradiol is shown as percentage inhibition.

[2] = molecular target: T1, oestrogen receptor (ER) (Homo sapiens, UniProt P03372); test: Anti-oestrogenic action in MVLN cells (inhibition of estradiol-induced luciferase); format: cell-based; conditions: inhibition of estradiol-induced luciferase signal, value of Ex. 44 is a mean value, read-out: Antioestrogenic action in vitro: MVLN transactivation antagonism IC50
T1 construct: These MVLN cells express, along with the functional oestrogen receptor (ER), a reporter construct; endogenous in cells; host or cells: MVLN cells (MCF7 derivative carrying a luciferase reporter construct)
T1 sequence (P03372 1-595): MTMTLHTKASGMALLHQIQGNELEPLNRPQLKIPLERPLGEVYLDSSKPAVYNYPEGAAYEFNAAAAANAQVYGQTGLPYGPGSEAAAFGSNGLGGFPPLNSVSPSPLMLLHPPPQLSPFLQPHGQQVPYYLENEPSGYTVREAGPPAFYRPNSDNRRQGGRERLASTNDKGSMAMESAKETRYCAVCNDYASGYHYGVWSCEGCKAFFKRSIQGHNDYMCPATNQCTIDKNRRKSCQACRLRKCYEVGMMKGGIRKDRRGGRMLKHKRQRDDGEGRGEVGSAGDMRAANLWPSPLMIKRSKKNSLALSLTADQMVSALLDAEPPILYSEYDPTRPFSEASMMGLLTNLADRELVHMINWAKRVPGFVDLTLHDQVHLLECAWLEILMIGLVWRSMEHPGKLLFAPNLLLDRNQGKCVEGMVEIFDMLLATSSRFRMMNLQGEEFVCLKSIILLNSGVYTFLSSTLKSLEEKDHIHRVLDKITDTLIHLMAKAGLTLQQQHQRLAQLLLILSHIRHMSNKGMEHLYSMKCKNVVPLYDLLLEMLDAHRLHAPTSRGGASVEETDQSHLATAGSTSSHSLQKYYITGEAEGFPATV
Method in brief: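 Inhibition of estradiol-driven luciferase expression was measured with compounds co-applied alongside oestrogen. Reporter system: MCF7-derived MVLN cells expressing endogenous functional ER and an ER-responsive luciferase construct.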

[3] = test system: uterus; test: Oestrogenic action - uterus growth test in the infantile rat; format: in vivo; conditions: sc, 72 h, s.c. 3 days, relative to E2 0.3 μg/animal, read-out: maximum uterotropic action (% estradiol action) in the dose range from 0.03 to 3 mg/kg; for Emax at 0.3 mg/kg: maximum at dose 0.3 mg/kg
Description: Both the uterus and the vagina show a weight increase that is dependent on oestrogenic efficacy, in infantile animals when they are treated with a substance with oestrogenic action. In the uterus, under oestrogenic action there is also proliferation and increase in height of the luminal epithelium.
Immature, intact rats (n=5-6 animals/group; body weight 40-50 g) receive the substance s.c. for 3 days (d1-d3). On day 4 (d4) the animals are killed with CO2. The uteri are removed and weighed. For histological assessment, a piece of uterus, preferably a uterine horn, is fixed in formaldehyde and embedded in paraffin. The stimulation of the organ weights (relative to mg/100 g body weight) and the height of the epithelium are shown as percentage stimulation in comparison with the reference compound 17β-estradiol (E2). (Substitution dose of E2 0.3 μg/animal).

[4] = test system: ovarian estradiol synthesis; test: Stimulation of ovarian oestrogen synthesis (HPG axis) in intact adult rats; format: in vivo, rat; conditions: hormonally intact adult rats, daily for 10 days; quotient of peripheral estradiol values after and before treatment
Description: The clinical use both of pure anti-oestrogens and of various SERMs for the treatment of premenopausal women is limited by their property of stimulating the ovaries through activation of the hypothalamic-pituitary-gonadal axis (HPG axis), which leads to the increase in peripheral estradiol levels (Palomba, S., Orio, F., Jr., Morelli, M., Russo, T., Pellicano, M., Zupi, E., Lombardi, G., Nappi, C., Panici, P. L., and Zullo, F. (2002). Raloxifene administration in premenopausal women with uterine leiomyomas: a pilot study. J Clin Endocrinol Metab 87, 3603-3608). This stimulation of the HPG axis is associated with penetration of the blood-brain barrier and penetration of the brain. To investigate the ovary-stimulating properties of the claimed pharmacological compounds, hormonally intact adult rats were treated with the substances daily for a period of 10 days. The study end point is the quotient of peripheral estradiol values after and before treatment.

Compound | IC50 [2] | Stimulation of ovarian oestrogen synthesis: factor at a dose of 3 mg/kg rat [4] | inhibition in vivo at 0.3 mg/kg [1] | Emax at 0.1 mg/kg ([3]; maximum at dose 0.1 mg/kg) | Emax at 0.3 mg/kg [3]
CN(CCCCCCC1=C(c2ccc(F)cc2)CCCc2cc(O)ccc21)CCCCS(=O)(=O)CCC(F)(F)F [Example 51, 8-(4-Fluorophenyl)-9-[6-(methyl{4-[(3,3,3-trifluoropropyl)sulphonyl]butyl}amino)hexyl]-6,7-dihydro-5H-benzo[7]annulen-3-ol] | 30 nM |  | 59% | 22% | 
CN(CCCCCCC1=C(c2ccc(F)cc2)CCCc2cc(O)ccc21)CCCS(=O)(=O)CCC(F)(F)C(F)(F)F [Example 116, 8-(4-fluorophenyl)-9-[6-(methyl{3-[(3,3,4,4,4-pentafluorobutyl)sulphonyl]propyl}amino)hexyl]-6,7-dihydro-5H-benzo[7]annulen-3-ol] | 34 nM |  | 15% |  | 
CN(CCCCCCC1=C(c2cc(F)cc(F)c2)CCCc2cc(O)ccc21)CCCCS(=O)(=O)CCC(F)(F)F [Example 46, 8-(3,5-Difluorophenyl)-9-[6-(methyl{4-[(3,3,3-trifluoropropyl)sulphonyl]butyl}amino)hexyl]-6,7-dihydro-5H-benzo[7]annulen-3-ol] | 36 nM |  | 30% |  | 
CC(C)(O)CN(CCCCCCC1=C(c2ccc(F)c(F)c2)CCCc2cc(O)ccc21)CCCS(=O)(=O)CCC(F)(F)F [Example 27, 8-(3,4-Difluorophenyl)-9-{6-[(2-hydroxy-2-methylpropyl){3-[(3,3,3-trifluoropropyl)sulphonyl]propyl}amino]hexyl}-6,7-dihydro-5H-benzo[7]annulen-3-ol] | 35 nM |  | 10% |  | 
CN(CCCCCCC1=C(c2ccc(F)c(F)c2)CCCc2cc(O)ccc21)CCCS(=O)(=O)CCCC(F)(F)F [Example 23, 8-(3,4-Difluorophenyl)-9-[6-(methyl{3-[(4,4,4-trifluorobutyl)sulphonyl]propyl}amino)hexyl]-6,7-dihydro-5H-benzo[7]annulen-3-ol] | 22 nM |  | 33% |  | 
CN(CCCCCCC1=C(c2ccc(F)cc2)CCCc2cc(O)ccc21)CCCCS(=O)(=O)CCCC(F)(F)C(F)(F)F [Example 114, 8-(4-fluorophenyl)-9-[6-(methyl{4-[(4,4,5,5,5-pentafluoropentyl)sulphonyl]butyl}amino)hexyl]-6,7-dihydro-5H-benzo[7]annulen-3-ol] | 10 nM | 1.4 | 49% |  | 
CN(CCCCCCC1=C(c2ccc(F)cc2)CCCc2cc(O)ccc21)CCCCS(=O)(=O)CCCC(F)(F)F [Example 48, 8-(4-Fluorophenyl)-9-[6-(methyl{4-[(4,4,4-trifluorobutyl)sulphonyl]butyl}amino)hexyl]-6,7-dihydro-5H-benzo[7]annulen-3-ol] | 17 nM |  | 79% |  | 
CN(CCCCCCC1=C(c2cc(F)cc(F)c2)CCCc2cc(O)ccc21)CCCS(=O)(=O)CCCC(F)(F)F [Example 7, 8-(3,5-Difluorophenyl)-9-[6-(methyl{3-[(4,4,4-trifluorobutyl)sulphonyl]propyl}amino)hexyl]-6,7-dihydro-5H-benzo[7]annulen-3-ol] | 24 nM |  | 23% |  | 
CN(CCCCCCC1=C(c2ccc(F)cc2)CCCc2cc(O)ccc21)CCCS(=O)(=O)CCCCC(F)(F)F [Example 80, 8-(4-Fluorophenyl)-9-[6-(methyl{3-[(5,5,5-trifluoropentyl)sulphonyl]propyl}amino)hexyl]-6,7-dihydro-5H-benzo[7]annulen-3-ol] | 8 nM | 2.3 | 59% |  | 

More lines, main results first:

IC50 [2] | Stimulation of ovarian oestrogen synthesis: factor at a dose of 3 mg/kg rat [4] | Compound | inhibition in vivo at 0.3 mg/kg [1] | Emax at 0.1 mg/kg ([3]; maximum at dose 0.1 mg/kg) | Emax at 0.3 mg/kg [3]
13 nM | 2.5 | CN(CCCCCCC1=C(c2ccc(F)cc2)CCCc2cc(O)ccc21)CCCS(=O)(=O)CC1CCC(F)(F)CC1 [Example 123, 9-{6-[(3-{[(4,4-difluorocyclohexyl)methyl]sulphonyl}propyl)(methyl)amino]hexyl}-8-(4-fluorophenyl)-6,7-dihydro-5H-benzo[7]annulen-3-ol] | 56% |  | 8%
 | 3.1 | O=C(c1ccc(OCCN2CCCCC2)cc1)c1c(-c2ccc(O)cc2)sc2cc(O)ccc12 [Raloxifene hydrochloride, Raloxifene, reference compound] |  |  | 
13 nM | 2.0 | CN(CCCCCCC1=C(c2cccc(F)c2)CCCc2cc(O)ccc21)CCCCS(=O)(=O)CCCC(F)(F)C(F)(F)F [Example 124, 8-(3-fluorophenyl)-9-[6-(methyl{4-[(4,4,5,5,5-pentafluoropentyl)sulphonyl]butyl}amino)hexyl]-6,7-dihydro-5H-benzo[7]annulen-3-ol] | 67% |  | 
6 nM | 2.4 | CN(CCCCCCC1=C(c2ccc(F)cc2)CCCc2cc(O)ccc21)CCCCS(=O)(=O)C1CCC(F)(F)CC1 [Example 122, 9-{6-[{4-[(4,4-difluorocyclohexyl)sulphonyl]butyl}(methyl)amino]hexyl}-8-(4-fluorophenyl)-6,7-dihydro-5H-benzo[7]annulen-3-ol] | 52% |  | 7%
18 nM | 2.1 | CN(CCCCCCC1=C(c2ccc(F)cc2)CCCc2cc(O)ccc21)CCCS(=O)(=O)CCCC(F)(F)F [Example 117, 8-(4-fluorophenyl)-9-[6-(methyl{3-[(4,4,4-trifluorobutyl)sulphonyl]propyl}amino)hexyl]-6,7-dihydro-5H-benzo[7]annulen-3-ol] | 65% |  | 18%
13 nM |  | CN(CCCCCCC1=C(c2cccc(F)c2)CCCc2cc(O)ccc21)CCCS(=O)(=O)CCCC(F)(F)C(F)(F)F [Example 125, 8-(3-fluorophenyl)-9-[6-(methyl{3-[(4,4,5,5,5-pentafluoropentyl)sulphonyl]propyl}amino)hexyl]-6,7-dihydro-5H-benzo[7]annulen-3-ol] | 75% |  | 
